Among the data in PubChem BioAssay (NCI) are GI50 and TGI values, retold here.

Among the test systems are T-47D breast; NCI-H23 lung; PC-3 prostate; SK-MEL-5 melanoma; MOLT-4 leukemia; SNB-75 CNS; COLO 205 colon; OVCAR-5 ovarian; HCT-15 colon; HCC-2998 colon.
Common to all, as to experiment: DTP human tumour cell line panel, 48 h

Where “and” joins values, the source holds several entries; their conditions need not be identical. Identical values can stand only once.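 Method: 48-hour compound exposure of cells in 96-well plates, five concentrations, linear interpolation of endpoints. GI50 is the concentration that inhibits growth by half. The concentration for full growth arrest is given as TGI.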 *1 amine or outer side, *2 acyl side, *3 side chain or, on linkers, in order; H or OH if unused. Where a SMILES comes first, the peptide text is derived from it. Bridges are numbered along the chain shown (N, C = ends). [ ]: non-standard residue; d: D form. ξ: configuration not given here. X4 = CCC(C)C(N[*:1])C(O)CC(=O)O[C@H](C(=O)C(C)C(=O)[*:2])C(C)C; NMeY = CN[C@@H](Cc1ccc(O)cc1)C(=O)O; X9 = O=C([C@@H]1CC(O)CN1[*:1])[*:2]; ξNMeL = CNC(CC(C)C)C(=O)O; ξT = CC(O)C(N)C(=O)O

As a reminder, the GI50 is the concentration giving 50% growth inhibition. What is called TGI is the concentration giving total growth inhibition.

Take `COC(=O)C1=CN(CC2=CC(=O)C(C)=CC2=O)C=C(C(=O)OC)C1c1cccc(OC)c1OC`: the GI50 is 46.2 µM with T-47D breast; 22.4 µM in the test with NCI-H23 lung; 15.3 µM in the test with PC-3 prostate; 15.2 µM in the test with SK-MEL-5 melanoma; 3.28 µM with MOLT-4 leukemia; above 100 µM with SNB-75 CNS. Further, the GI50 with COLO 205 colon was 9.81 µM; in the test with OVCAR-5 ovarian it was 18.7 µM; in the test with HCT-15 colon, 18.4 µM; in the test on HCC-2998 colon it was 14.2 µM. The TGI with T-47D breast is above 94.4 µM; with NCI-H23 lung it was above 55.1 µM; in the test on PC-3 prostate, 38.6 µM; with SK-MEL-5 melanoma, 32.6 µM; with MOLT-4 leukemia, 9.68 µM; with SNB-75 CNS, above 100 µM. Besides, the TGI with COLO 205 colon is above 32.6 µM; in the test with OVCAR-5 ovarian, 36.3 µM; with HCT-15 colon, 36.9 µM; in the test with HCC-2998 colon, 27.2 µM.
With `O=C(Oc1ccccc1)c1cc(O)c(O)c(O)c1`, the GI50 in the test on T-47D breast is 18.1 µM; with NCI-H23 lung it was 11.7 µM; with PC-3 prostate it was 13.7 µM; with SK-MEL-5 melanoma it was 11.4 µM; with MOLT-4 leukemia, 2.23 µM; in the test on SNB-75 CNS it was 7.41 µM. The GI50 is 18.9 µM with COLO 205 colon, 25.2 µM in the test on OVCAR-5 ovarian, 5.98 µM with HCT-15 colon and 13.5 µM in the test with HCC-2998 colon. Besides, the TGI in the test on T-47D breast was above 100 µM; in the test on NCI-H23 lung it was 59.2 µM; with PC-3 prostate, above 100 µM; in the test with SK-MEL-5 melanoma, 38.8 µM; in the test on MOLT-4 leukemia, 26.2 µM; with SNB-75 CNS it was above 100 µM. In addition, the TGI with COLO 205 colon was above 100 µM; with OVCAR-5 ovarian, above 100 µM; in the test with HCT-15 colon, above 100 µM; in the test on HCC-2998 colon, 44.3 µM.
Turning to `COc1cc2c(cc1OCCCCCOc1cc(-c3ccc(F)cc3)nc(C)n1)N=C[C@@H]1CCCN1C2=O`, the GI50 was 6.27 µM in the test on T-47D breast; above 100 µM in the test with NCI-H23 lung; above 33.3 µM in the test on PC-3 prostate; above 100 µM in the test on SNB-75 CNS; 4.32 µM in the test on COLO 205 colon; above 100 µM in the test on OVCAR-5 ovarian. Also, the GI50 with HCT-15 colon is above 41.9 µM. Moreover, the TGI in the test on T-47D breast is 59.6 µM; with NCI-H23 lung, above 100 µM; in the test on PC-3 prostate, above 60.5 µM; with SK-MEL-5 melanoma, above 26.2 µM; in the test with MOLT-4 leukemia, above 45 µM; in the test with SNB-75 CNS, above 100 µM. The TGI in the test with COLO 205 colon is 7.64 µM; in the test on OVCAR-5 ovarian it was above 100 µM; with HCT-15 colon, above 77.9 µM.
`CCN(CC)c1ccc(/C=N/NC(=O)c2ccc(Nc3ccnc(C(F)(F)F)c3)cc2)c(O)c1`: the GI50 is 0.332 µM in the test on T-47D breast; 0.428 µM with NCI-H23 lung; 0.434 µM in the test with PC-3 prostate; 0.412 µM in the test on SK-MEL-5 melanoma; 0.117 µM in the test with MOLT-4 leukemia; 0.152 µM in the test with SNB-75 CNS. Moreover, the concentration for 50% growth inhibition (GI50) with COLO 205 colon is 0.281 µM; in the test with OVCAR-5 ovarian, 0.38 µM; in the test with HCT-15 colon, 0.0666 µM; with HCC-2998 colon, 0.25 µM. In addition, the total growth inhibition concentration (TGI) with T-47D breast is 3.7 µM; in the test on NCI-H23 lung, 9.8 µM; in the test with PC-3 prostate, above 100 µM; in the test with SK-MEL-5 melanoma, 1.71 µM; in the test on MOLT-4 leukemia, 1.38 µM; in the test with SNB-75 CNS, 3.41 µM. In addition, the TGI is 1.09 µM in the test on COLO 205 colon, 4.75 µM in the test on OVCAR-5 ovarian, 2.55 µM with HCT-15 colon and 1.4 µM with HCC-2998 colon.
For `CCCCCC(=O)N1c2ccccc2NC2=C(C(=O)CC(c3ccc(OC)c(OC)c3)C2)C1c1ccc(C(F)(F)F)cc1` (stereo not given), the GI50 was above 100 µM in the test on T-47D breast; above 100 µM in the test on NCI-H23 lung; 6.25 µM with PC-3 prostate; 62.8 µM in the test on SK-MEL-5 melanoma; 8.9 µM in the test with MOLT-4 leukemia; 15.3 µM with SNB-75 CNS. The GI50 in the test with COLO 205 colon, with OVCAR-5 ovarian, in the test on HCT-15 colon and with HCC-2998 colon was above 100 µM in each case. For the same compound, the TGI with T-47D breast, with NCI-H23 lung, with PC-3 prostate, in the test on SK-MEL-5 melanoma, with MOLT-4 leukemia and with SNB-75 CNS was above 100 µM in each case. In addition, the TGI with COLO 205 colon, in the test with OVCAR-5 ovarian, in the test with HCT-15 colon and in the test with HCC-2998 colon was above 100 µM each time.
In the case of `CCC(C)C1NC(=O)C(NC(=O)C(CC(C)C)N(C)C(=O)[C@@H]2CC(O)CN2)C(C)OC(=O)[C@H](Cc2ccc(OC)cc2)N(C)C(=O)[C@@H]2CCCN2C(=O)[C@H](CC(C)C)NC(=O)C(C)C(=O)[C@H](C(C)C)OC(=O)CC1O` (stereo not given in full) (H-[X9][ξNMeL][ξT][X4]LP[NMeY](Me); ester 3-C), the TGI was 0.0657 µM and 0.0994 µM with T-47D breast; 0.13 µM and 0.131 µM in the test with PC-3 prostate; 0.101 µM and 0.0147 µM in the test on SK-MEL-5 melanoma; 0.0426 µM and 0.0387 µM in the test with MOLT-4 leukemia; 0.119 µM and 0.166 µM in the test with SNB-75 CNS; 0.0156 µM in the test on COLO 205 colon. Further, the TGI in the test on OVCAR-5 ovarian was 0.559 µM and 1.49 µM; in the test on HCT-15 colon, 8.57 µM; in the test on HCC-2998 colon, 0.101 µM and 0.133 µM. Further, the GI50 was 0.365 µM in the test with OVCAR-5 ovarian and 0.147 µM in the test with HCT-15 colon.
With `O=c1cc/c(=N\Nc2ccccc2)c(=O)/c1=N/Nc1ccccc1`, the GI50 with T-47D breast, in the test with NCI-H23 lung, in the test on PC-3 prostate, with SK-MEL-5 melanoma, with MOLT-4 leukemia and with SNB-75 CNS was above 50 µM throughout. The GI50 in the test with COLO 205 colon, in the test on OVCAR-5 ovarian and in the test on HCT-15 colon was above 50 µM in each case. Besides, the TGI in the test with T-47D breast, in the test with NCI-H23 lung, in the test with PC-3 prostate, in the test on SK-MEL-5 melanoma, in the test on MOLT-4 leukemia and with SNB-75 CNS was above 50 µM in each case. Besides, the TGI with COLO 205 colon, in the test on OVCAR-5 ovarian and in the test on HCT-15 colon was above 50 µM throughout.
Take `COc1ccc(-c2ccc(/C=N/n3cn[nH]c3=S)o2)c([N+](=O)[O-])c1`: the GI50 with T-47D breast was 51.8 µM; with NCI-H23 lung it was 39.3 µM; in the test with PC-3 prostate, 35.7 µM; in the test with MOLT-4 leukemia it was 16.3 µM; with COLO 205 colon, 45.6 µM; in the test on OVCAR-5 ovarian, 97.1 µM. Moreover, the figures for the GI50 with HCT-15 colon and in the test with HCC-2998 colon were 26 µM and 38.9 µM, respectively. Also, the TGI was above 100 µM in the test on T-47D breast; above 100 µM in the test with NCI-H23 lung; above 100 µM with PC-3 prostate; 50.8 µM with MOLT-4 leukemia; above 100 µM with COLO 205 colon; above 100 µM in the test on OVCAR-5 ovarian. Besides, the TGI in the test with HCT-15 colon and in the test with HCC-2998 colon was above 100 µM throughout.
For `CC1(C)OC2C(CO)OC(n3ccc(=O)[nH]c3=O)C2O1` (stereo not given), the TGI with T-47D breast, in the test with NCI-H23 lung, in the test with PC-3 prostate, with SK-MEL-5 melanoma, in the test with MOLT-4 leukemia and in the test on COLO 205 colon was above 100 µM throughout. In addition, the total growth inhibition concentration (TGI) with OVCAR-5 ovarian, in the test on HCT-15 colon and with HCC-2998 colon was above 100 µM in each case.
Turning to `CCCCCCn1c(-c2ccc(C(=O)O/N=C(\N)c3ccc(OC)cc3)cc2)nc(-c2ccccc2)c1-c1ccccc1`, the GI50 in the test on T-47D breast is 1.94 µM; in the test with NCI-H23 lung, 1.31 µM; in the test with PC-3 prostate, 1.67 µM; in the test with SK-MEL-5 melanoma, 1.92 µM; in the test with MOLT-4 leukemia, 1.41 µM; with SNB-75 CNS, 1.29 µM. The GI50 with HCT-15 colon is 1.25 µM; in the test with HCC-2998 colon, 2.09 µM. For the same compound, the TGI in the test on T-47D breast was found to be 4.89 µM; in the test on NCI-H23 lung, 2.93 µM; in the test on PC-3 prostate, 4.16 µM; in the test on SK-MEL-5 melanoma it was 3.71 µM; in the test on MOLT-4 leukemia, 4.08 µM; in the test on SNB-75 CNS, 3.09 µM. Besides, the values for the TGI in the test with HCT-15 colon and in the test on HCC-2998 colon were 2.87 µM and 4.81 µM, respectively.
Take `c1ccc(-c2nc(Nc3ccc(-c4nc5ccccc5[nH]4)cc3)nc(N3CCOCC3)n2)cc1`: the GI50 with T-47D breast is 1.62 µM; in the test with NCI-H23 lung, 2.07 µM; in the test with PC-3 prostate it was 1.8 µM; with SK-MEL-5 melanoma, 1.69 µM; with MOLT-4 leukemia it was 1.33 µM; in the test with SNB-75 CNS it was 1.63 µM. Also, the results for the GI50 in the test with COLO 205 colon and in the test with OVCAR-5 ovarian were 1.41 µM and 2.16 µM, respectively. The concentration for total growth inhibition (TGI) with T-47D breast worked out at 3.82 µM; in the test with NCI-H23 lung it was 4.78 µM; in the test on PC-3 prostate it was 3.64 µM; in the test on SK-MEL-5 melanoma, 3.15 µM; in the test on MOLT-4 leukemia, 3.53 µM; in the test on SNB-75 CNS it was 3.15 µM. Further, the TGI stood at 3.13 µM in the test with COLO 205 colon and 4.02 µM with OVCAR-5 ovarian.
`COc1ccc(/C=C/C(=O)c2ccc(Nc3ncnc4ccccc34)cc2)cc1OC`: the GI50 in the test on T-47D breast was 3.61 µM; in the test on NCI-H23 lung it was 4.69 µM; in the test on PC-3 prostate, 4.22 µM; with MOLT-4 leukemia, 5.68 µM; in the test on SNB-75 CNS, 5.19 µM; with COLO 205 colon it was 14.8 µM. For the same compound, the GI50 in the test on OVCAR-5 ovarian is 39.6 µM; with HCT-15 colon, 8.63 µM; with HCC-2998 colon it was 3.22 µM. The TGI in the test on T-47D breast is 25.2 µM; in the test on NCI-H23 lung, above 100 µM; with PC-3 prostate it was above 100 µM; in the test with MOLT-4 leukemia it was 23.5 µM; in the test with SNB-75 CNS, 48.3 µM; with COLO 205 colon it was above 100 µM. Further, the TGI with OVCAR-5 ovarian was above 100 µM; in the test on HCT-15 colon it was above 100 µM; in the test on HCC-2998 colon, 11.8 µM.
